Measured values published in paper PMC7714403 (JCI Insight, 2020).
Read-outs that look alike come from different tables or passages of the source.

Experiments:
OCI-AML3-Luc+ cells = test: OCI-AML3-Luc+ xenograft model; type: in vivo, NSG mice
Description: Engraftment and growth of leukemic cells were monitored by noninvasive bioluminescence imaging in cell line xenograft models, as previously done ([47]). Details on the cell engraftment and dosing in mouse models are provided in the Supplemental Methods.
Luc+ or MOLM13-Res -Luc+ cells, 0.5 million OCI-AML3 -Luc+ cells, and 10,000 Ba/F3-FLT3-ITD/F691L-GFP+ cells. Weekly tumor engraftment of cell line xenograft models were assessed after injection of D-luciferin (150mg/kg i.p.; Gold Biotechnology, Inc, St. Louis, MO) on Xenogen IVIS-200 imaging system (Perkin Elmer, Waltham, MA) or GFP monitoring by peripheral blood via BD LSR II flow cytometer (BD Biosciences, San Jose, CA). Signal intensity was analyzed using Living Image Software (PerkinElmer) or FlowJo v10.0.08 software (FlowJo, LLC, Ashland, OR). Mice were randomized to treatment groups based on signal intensity and leukemia burden. Drug treatments were started on days 3, 7, or 13 after cell injection in OCI-AML3, MOLM13, and MOLM13-Res xenografts, respectively. […]
All mice were observed daily and humanely euthanized when showing signs of progressive disease including, hind limb paralysis, weight loss more than 20%, and lethargy. All animal studies were approved by the OSU Institutional Animal Care and Use Committee. […]
Cells were then fixed on ice with ice-cold 70% ethanol for 30 minutes . Cells were either stored at -20°C for up to 1 month or processed immediately. Cells were spun down at 450 x g for 10 minutes and stained

AurA, AurB, AurC = test: KiNativ, OCI cells live cell; type: cell-based, human; details: labeling site ATP Loop, peptide GKFGNVYLAR
BTK = BTK (Homo sapiens, UniProt Q06187); test: KiNativ, OCI cells live cell; type: cell-based; details: labeling site Activation Loop, peptide YVLDDEYTSSVGSKFPVR
CK1a = CK1a (Homo sapiens, UniProt P48729); test: KiNativ, OCI cells live cell; type: cell-based; details: 2 h, labeling site Lys2, peptide […]
JAK3 domain2 = target: T1, JAK3 domain2 (Homo sapiens, UniProt P52333); test: KiNativ, OCI cells live cell; type: cell-based; details: 2 h, labeling site Lys1, peptide […]
T1 construct: JAK3 domain2

MAPKAPK3 = MAPKAPK3 (Homo sapiens, UniProt Q16644); test: KiNativ, OCI cells live cell; type: cell-based; details: 2 h, labeling site ATP Loop, peptide […]
NDR1 = NDR1 (Homo sapiens, UniProt Q15208); test: KiNativ, OCI cells live cell; type: cell-based; details: 2 h
NEK9 = target: T2, NEK9 (Homo sapiens, UniProt Q8TD19); test: KiNativ, OCI cells live cell; type: cell-based; details: 2 h
T2 sequence (Q8TD19 1-979): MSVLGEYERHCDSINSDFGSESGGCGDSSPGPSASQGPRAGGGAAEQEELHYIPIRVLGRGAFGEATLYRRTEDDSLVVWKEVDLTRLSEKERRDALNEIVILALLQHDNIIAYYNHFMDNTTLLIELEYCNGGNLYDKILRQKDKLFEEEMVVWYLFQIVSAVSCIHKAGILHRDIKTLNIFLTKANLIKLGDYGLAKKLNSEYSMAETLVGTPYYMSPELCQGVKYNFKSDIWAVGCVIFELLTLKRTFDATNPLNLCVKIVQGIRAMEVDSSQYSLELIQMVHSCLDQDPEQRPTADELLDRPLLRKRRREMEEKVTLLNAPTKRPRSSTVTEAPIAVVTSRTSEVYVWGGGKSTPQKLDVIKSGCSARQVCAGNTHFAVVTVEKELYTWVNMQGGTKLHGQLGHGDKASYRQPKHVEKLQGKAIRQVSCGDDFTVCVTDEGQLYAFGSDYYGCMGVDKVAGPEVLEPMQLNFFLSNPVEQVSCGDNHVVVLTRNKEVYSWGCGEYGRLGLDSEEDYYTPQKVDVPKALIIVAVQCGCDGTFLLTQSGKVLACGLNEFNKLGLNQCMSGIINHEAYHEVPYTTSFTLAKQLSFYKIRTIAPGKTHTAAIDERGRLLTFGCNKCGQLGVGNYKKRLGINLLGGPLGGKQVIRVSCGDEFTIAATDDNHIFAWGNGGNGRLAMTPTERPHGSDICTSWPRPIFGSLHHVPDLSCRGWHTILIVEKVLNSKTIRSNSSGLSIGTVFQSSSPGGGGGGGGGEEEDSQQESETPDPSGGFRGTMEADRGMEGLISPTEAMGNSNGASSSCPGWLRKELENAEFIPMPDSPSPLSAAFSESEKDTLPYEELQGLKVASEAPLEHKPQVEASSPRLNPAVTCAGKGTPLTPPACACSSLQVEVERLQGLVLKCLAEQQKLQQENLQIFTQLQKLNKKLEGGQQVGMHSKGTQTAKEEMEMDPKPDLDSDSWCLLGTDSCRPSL

p38d, p38g = test: KiNativ, OCI cells live cell; type: cell-based, human; details: labeling site Lys2, peptide DLKPGNLAVNEDCELK
PHKg2 = PHKg2 (Homo sapiens, UniProt P15735); test: KiNativ, OCI cells live cell; type: cell-based; details: 2 h, labeling site Lys1, peptide […]
PI4KB = PI4KB (Homo sapiens, UniProt Q9UBF8); test: KiNativ, OCI cells live cell; type: cell-based; details: 2 h, labeling site ATP
PKCa, PKCg = test: KiNativ, OCI cells live cell; type: cell-based, human; details: labeling site Other, peptide NLIPMDPNGLSDPYVKLK
RSK2 domain2 = target: T3, RSK2 domain2 (Homo sapiens, UniProt P51812); test: KiNativ, OCI cells live cell; type: cell-based; details: 2 h, labeling site Lys2, peptide […]
T3 construct: RSK2 domain2

SNRK = SNRK (Homo sapiens, UniProt Q9NRH2); test: KiNativ, OCI cells live cell; type: cell-based; details: 2 h, labeling site Lys1, peptide […]
TAO2 = TAO2 (Homo sapiens, UniProt Q9UL54); test: KiNativ, OCI cells live cell; type: cell-based; details: 2 h, labeling site Lys2, peptide […]
CDK4 = CDK4 (Homo sapiens, UniProt P11802); test: KdELECT binding assay; parameters: purchased Eurofins DiscoverX
ACK1 = ACK1 (Homo sapiens, UniProt Q07912); test: KdELECT binding assay; parameters: purchased Eurofins DiscoverX
[1] = 50 mg/kg once daily 5 days/week

PI4KB, sequence (Q9UBF8 whole entry): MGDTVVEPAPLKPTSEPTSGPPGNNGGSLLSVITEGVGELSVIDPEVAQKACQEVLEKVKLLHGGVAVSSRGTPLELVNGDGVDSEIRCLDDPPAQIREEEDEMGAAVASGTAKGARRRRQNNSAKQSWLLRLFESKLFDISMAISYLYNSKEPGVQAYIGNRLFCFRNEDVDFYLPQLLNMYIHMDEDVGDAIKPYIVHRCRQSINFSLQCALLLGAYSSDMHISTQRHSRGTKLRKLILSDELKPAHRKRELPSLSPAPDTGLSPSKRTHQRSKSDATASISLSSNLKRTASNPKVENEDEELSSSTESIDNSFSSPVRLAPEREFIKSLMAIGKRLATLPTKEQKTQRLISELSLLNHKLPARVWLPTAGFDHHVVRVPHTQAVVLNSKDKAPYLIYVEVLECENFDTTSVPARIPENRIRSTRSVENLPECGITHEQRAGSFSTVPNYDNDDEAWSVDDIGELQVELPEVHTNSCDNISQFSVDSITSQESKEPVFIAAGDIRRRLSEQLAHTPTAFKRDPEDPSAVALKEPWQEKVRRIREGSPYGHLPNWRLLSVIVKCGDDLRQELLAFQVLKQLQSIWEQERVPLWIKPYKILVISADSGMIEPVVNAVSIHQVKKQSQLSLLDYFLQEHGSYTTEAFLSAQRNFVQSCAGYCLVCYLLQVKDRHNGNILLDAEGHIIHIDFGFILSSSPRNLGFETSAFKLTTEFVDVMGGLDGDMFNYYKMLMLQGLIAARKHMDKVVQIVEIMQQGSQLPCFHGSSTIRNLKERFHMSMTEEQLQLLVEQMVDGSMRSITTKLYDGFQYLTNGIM
NDR1, sequence (Q15208 whole entry): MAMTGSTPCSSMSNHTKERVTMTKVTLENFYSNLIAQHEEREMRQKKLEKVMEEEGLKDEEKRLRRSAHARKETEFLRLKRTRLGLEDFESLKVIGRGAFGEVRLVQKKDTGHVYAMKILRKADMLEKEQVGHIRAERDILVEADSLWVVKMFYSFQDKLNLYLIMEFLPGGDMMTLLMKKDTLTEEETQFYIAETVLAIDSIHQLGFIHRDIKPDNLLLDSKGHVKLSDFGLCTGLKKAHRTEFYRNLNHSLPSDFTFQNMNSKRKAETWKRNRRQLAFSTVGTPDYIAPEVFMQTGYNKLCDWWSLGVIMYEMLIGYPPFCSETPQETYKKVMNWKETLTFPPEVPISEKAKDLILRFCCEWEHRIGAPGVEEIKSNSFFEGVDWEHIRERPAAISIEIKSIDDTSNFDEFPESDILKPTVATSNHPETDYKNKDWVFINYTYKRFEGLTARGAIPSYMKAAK
MAPKAPK3, sequence (Q16644 whole entry): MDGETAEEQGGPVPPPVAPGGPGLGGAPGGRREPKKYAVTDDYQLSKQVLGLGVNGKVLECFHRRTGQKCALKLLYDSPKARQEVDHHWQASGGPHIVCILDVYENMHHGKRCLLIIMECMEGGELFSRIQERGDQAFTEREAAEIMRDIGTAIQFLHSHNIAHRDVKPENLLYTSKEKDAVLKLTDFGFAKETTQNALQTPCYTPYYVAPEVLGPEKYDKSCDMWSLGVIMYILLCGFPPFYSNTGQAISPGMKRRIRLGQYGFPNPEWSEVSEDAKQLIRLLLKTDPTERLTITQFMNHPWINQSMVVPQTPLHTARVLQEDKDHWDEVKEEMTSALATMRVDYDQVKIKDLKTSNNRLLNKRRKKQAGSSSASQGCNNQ
PHKg2, sequence (P15735 whole entry): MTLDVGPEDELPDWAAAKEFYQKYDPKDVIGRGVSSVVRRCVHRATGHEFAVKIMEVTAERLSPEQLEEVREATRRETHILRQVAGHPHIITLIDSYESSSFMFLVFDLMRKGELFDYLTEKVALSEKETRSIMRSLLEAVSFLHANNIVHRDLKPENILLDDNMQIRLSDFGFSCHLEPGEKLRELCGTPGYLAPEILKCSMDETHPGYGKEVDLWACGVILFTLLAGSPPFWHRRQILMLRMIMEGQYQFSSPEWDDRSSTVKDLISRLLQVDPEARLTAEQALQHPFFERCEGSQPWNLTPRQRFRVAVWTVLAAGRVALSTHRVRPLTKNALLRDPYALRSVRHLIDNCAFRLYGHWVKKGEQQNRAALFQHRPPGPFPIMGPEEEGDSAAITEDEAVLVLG
CDK4, sequence (P11802 whole entry): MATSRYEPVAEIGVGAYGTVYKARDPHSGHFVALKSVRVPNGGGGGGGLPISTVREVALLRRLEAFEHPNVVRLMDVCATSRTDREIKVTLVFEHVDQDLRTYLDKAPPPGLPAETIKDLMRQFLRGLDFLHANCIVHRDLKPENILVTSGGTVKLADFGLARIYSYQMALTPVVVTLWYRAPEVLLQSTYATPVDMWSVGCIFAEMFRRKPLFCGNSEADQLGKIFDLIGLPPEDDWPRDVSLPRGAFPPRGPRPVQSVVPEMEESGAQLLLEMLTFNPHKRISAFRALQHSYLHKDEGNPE
TAO2, sequence (Q9UL54 whole entry): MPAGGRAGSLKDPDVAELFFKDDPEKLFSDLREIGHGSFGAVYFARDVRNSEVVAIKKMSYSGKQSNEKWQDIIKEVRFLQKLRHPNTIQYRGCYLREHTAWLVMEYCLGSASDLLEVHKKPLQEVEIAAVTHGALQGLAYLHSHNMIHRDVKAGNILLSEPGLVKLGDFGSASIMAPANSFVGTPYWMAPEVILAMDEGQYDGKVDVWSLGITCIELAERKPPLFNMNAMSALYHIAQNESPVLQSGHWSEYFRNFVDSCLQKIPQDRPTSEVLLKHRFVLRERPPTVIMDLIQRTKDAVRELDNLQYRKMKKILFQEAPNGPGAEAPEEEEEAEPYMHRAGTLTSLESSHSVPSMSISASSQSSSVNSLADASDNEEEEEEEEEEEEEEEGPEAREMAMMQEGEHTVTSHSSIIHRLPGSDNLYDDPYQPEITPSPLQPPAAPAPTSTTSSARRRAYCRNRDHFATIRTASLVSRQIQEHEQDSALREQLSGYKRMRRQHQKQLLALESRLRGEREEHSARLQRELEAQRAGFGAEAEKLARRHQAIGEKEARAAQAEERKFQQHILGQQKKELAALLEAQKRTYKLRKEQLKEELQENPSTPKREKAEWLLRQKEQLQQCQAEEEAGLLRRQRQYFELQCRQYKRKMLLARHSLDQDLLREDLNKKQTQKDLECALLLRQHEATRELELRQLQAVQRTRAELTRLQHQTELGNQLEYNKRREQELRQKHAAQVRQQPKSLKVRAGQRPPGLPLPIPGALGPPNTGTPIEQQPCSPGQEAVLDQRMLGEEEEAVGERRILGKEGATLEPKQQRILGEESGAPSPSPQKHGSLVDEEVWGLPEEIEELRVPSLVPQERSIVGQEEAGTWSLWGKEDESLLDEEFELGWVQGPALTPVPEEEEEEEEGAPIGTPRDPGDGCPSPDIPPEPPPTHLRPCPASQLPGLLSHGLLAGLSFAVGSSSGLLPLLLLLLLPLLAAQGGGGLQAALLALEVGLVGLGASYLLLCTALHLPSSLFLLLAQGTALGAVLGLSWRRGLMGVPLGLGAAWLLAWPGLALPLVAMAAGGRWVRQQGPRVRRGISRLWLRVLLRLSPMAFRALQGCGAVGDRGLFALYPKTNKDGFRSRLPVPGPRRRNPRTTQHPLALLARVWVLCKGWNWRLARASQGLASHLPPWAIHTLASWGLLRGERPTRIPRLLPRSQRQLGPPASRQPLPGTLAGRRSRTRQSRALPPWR
BTK, sequence (Q06187 whole entry): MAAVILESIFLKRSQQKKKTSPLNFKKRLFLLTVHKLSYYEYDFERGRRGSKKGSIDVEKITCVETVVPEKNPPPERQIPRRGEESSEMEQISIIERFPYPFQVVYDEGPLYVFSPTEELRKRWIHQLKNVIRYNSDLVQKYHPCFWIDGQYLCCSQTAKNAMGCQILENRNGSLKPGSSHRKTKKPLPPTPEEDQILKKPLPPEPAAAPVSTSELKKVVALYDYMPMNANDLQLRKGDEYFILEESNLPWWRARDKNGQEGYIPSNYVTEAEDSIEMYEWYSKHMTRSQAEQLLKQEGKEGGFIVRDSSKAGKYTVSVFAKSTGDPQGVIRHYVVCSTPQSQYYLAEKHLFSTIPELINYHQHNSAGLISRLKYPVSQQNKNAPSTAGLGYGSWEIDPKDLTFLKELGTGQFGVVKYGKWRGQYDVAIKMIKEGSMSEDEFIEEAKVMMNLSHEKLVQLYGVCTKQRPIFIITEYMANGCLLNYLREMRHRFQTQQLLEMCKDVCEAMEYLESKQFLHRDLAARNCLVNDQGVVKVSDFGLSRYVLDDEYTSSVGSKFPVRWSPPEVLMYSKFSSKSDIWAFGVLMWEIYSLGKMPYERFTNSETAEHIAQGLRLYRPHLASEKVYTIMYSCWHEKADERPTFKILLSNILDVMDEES
SNRK, sequence (Q9NRH2 whole entry): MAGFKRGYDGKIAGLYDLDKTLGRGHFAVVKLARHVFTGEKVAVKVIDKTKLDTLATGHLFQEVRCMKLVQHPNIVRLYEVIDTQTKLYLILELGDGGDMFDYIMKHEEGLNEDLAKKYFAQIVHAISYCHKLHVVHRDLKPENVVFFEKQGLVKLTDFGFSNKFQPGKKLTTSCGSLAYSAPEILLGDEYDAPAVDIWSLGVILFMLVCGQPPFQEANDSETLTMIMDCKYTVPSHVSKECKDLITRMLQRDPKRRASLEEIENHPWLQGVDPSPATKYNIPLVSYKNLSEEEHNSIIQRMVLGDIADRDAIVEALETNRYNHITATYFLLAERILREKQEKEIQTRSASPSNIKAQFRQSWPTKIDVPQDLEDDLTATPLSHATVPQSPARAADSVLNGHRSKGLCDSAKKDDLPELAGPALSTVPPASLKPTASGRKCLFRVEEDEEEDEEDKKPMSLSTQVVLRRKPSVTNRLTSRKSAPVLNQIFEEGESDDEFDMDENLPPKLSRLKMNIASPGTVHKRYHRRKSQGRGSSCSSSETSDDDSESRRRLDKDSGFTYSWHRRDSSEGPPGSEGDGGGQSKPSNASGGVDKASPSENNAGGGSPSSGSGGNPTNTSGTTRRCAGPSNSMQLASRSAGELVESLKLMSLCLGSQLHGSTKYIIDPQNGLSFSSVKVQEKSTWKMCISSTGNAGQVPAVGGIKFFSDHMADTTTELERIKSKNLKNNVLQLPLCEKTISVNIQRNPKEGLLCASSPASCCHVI

CN1CCN(Cc2ccc(Nc3ncc(Cl)c(Nc4ccccc4S(=O)(=O)N(C)C)n3)cc2)CC1 [TP-0903]
Outgrowth of leukemia cells (bioluminescence) (OCI-AML3-Luc+ cells; [1]): suppressed the outgrowth of leukemia cells | Spleen weight at study endpoint (mean ± SD) (OCI-AML3-Luc+ cells; [1]): 181 ± 21 mg | Survival prolonged compared with vehicle (OCI-AML3-Luc+ cells; 50 mg/kg once daily 5 days/week up to 6 weeks): 9 days | Inhibition (AurA, AurB, AurC): 91.0% | Inhibition (BTK): 57.3% | inhibition at 0.1 µM (CK1a): -12.3% | inhibition at 0.1 µM (JAK3 domain2): 31% | inhibition at 0.1 µM (MAPKAPK3): -28.5% | inhibition at 0.1 µM (NDR1; labeling site Lys1, peptide DTGHVYAMKILR): 12.3% | inhibition at 0.1 µM (NDR1; labeling site Lys2, peptide DIKPDNLLLDSK): -7.7% | inhibition at 0.1 µM (NEK9): 37.9% | inhibition at 0.1 µM (NEK9; OCI cells, live cell, labeling site Activation Loop, peptide LGDYGLAKK, read-out: Inhibition): 39.6% | inhibition at 0.1 µM (NEK9; OCI cells, live cell, labeling site Lys1, peptide RTEDDSLVVWKEVDLTR, read-out: Inhibition): 40.8% | Inhibition (p38d, p38g): -17.4% | inhibition at 0.1 µM (PHKg2): -5.7% | inhibition at 0.1 µM (PI4KB; peptide LLSVIVKCGDDLRQELLAFQVLK): -13.1% | inhibition at 0.1 µM (PI4KB; peptide VPHTQAVVLNSKDK): -23.3% | Inhibition (PKCa, PKCg): -15.0% | inhibition at 0.1 µM (RSK2 domain2): -18.2% | inhibition at 0.1 µM (SNRK): 1% | inhibition at 0.1 µM (TAO2): 73.7% | Kd (CDK4): < 5 nM | Kd (ACK1): 7.3 nM
